Data taken from patent US12116614B2, “Methods for determining antibiotic sensitivity” (priority 2020, dated 2024).
Entries after “also recorded” stand apart in the source; their conditions may differ.

Experiments:
A. baumanii [1] = experiment: Relative percent killing of planktonic versus anti-DNABII NRel by top-line antibiotics; format: cell-based; details: 16-hour biofilms, HuTipMab 30 minutes, antibiotic 2 hours
Description: FIGS. 11A and 11B show relative percent killing of planktonic versus anti-DNABII NRel of five diverse species of human pathogens by each of the three current top-line antibiotics used to treat individuals with disease due to the indicated pathogen. Using the methods described herein, planktonic bacteria were recovered mid-log phase. NRel were induced by incubation of 16-hour biofilms with HuTipMab for 30 minutes. Planktonic and NRel populations were then incubated with each of three top-line antibiotics for 2 hours to determine relative percent killing. […] See boxed data in FIG. 11B for NTHI and S. aureus.

[2] = tested on: planktonic P. aeruginosa isolate JG1; experiment: MIC for planktonic clinical isolate; format: cell-based; details: planktonic P. aeruginosa isolate JG1 from CF sputum
Description: (§1) Here both the planktonic and anti-DNABII NRel of JG1 were incubated with ¼ of the indicated MIC of tobramycin.
MIC refers to minimal inhibitory concentration of an active agent such as a drug that is the lowest concentration that will inhibit the visible growth of a microorganism after overnight incubation and minimal bactericidal concentrations as the lowest concentration of an antimicrobial that will prevent the growth of an organism after subculture on antibiotic free media. Methods to determine these values are well known in the art and describe in Andrews, J. (2002) Antimicrob Chemother June; 49(6):1049.

[3] = tested on: P. aeruginosa isolate JG1; experiment: Killing of planktonic and anti-DNABII NRel of clinical isolate at 1/4 MIC; format: cell-based
Description: as §1

[4] = tested on: NTHI (biofilm-resident, planktonic, anti-rsPilA NRel, anti-IHF NRel); experiment: Antibiotic sensitivity of biofilm-resident, planktonic or NRel NTHI (2 h antibiotic exposure, CFU plating); format: cell-based, Nontypeable Haemophilus influenzae
Description: Biofilms were established for 16 hr at 37° C. as described above. For biofilm-resident NTHI: biofilms were washed twice with DPBS and incubated in sBHI supplemented with the indicated antibiotics for at 37° C. 2 h. For planktonic NTHI: NTHI were incubated in sBHI for 3 hr as described above to reach log phase of growth, then diluted to the approximate concentration of either the anti-IHF (2×10^8 CFU/ml) or anti-rsPilA NRels (3×10^8 CFU/ml) to permit comparison between anti-IHF or anti-rsPilA NRels, (see FIG. 1). Planktonic NTHI were incubated with the indicated antibiotics at 37° C. for 2 hr. For NRel NTHI: anti-IHF or anti-rsPilA NRel, generated and collected as described above were incubated at 37° C. for 2 hr with the indicated antibiotics. CFU NTHI were determined by serial dilution and plating. Amoxicillin (Sigma-Aldrich, St. Louis, MO) and clavulanate (U.S. Pharmacopeia, Rockville, MD) were used at a ratio of 2:1. Trimethoprim (Sigma-Aldrich) and sulfamethoxazole (Santa Cruz Biotech, Dallas, TX) were used at a ratio of 1:5. […] All experiments were performed at least three times on separate days with two technical replicates for each treatment and control group.
To avoid excessive manipulation or dilution of NRel NTHI, and to permit direct comparison of equal numbers of planktonic and NRel, the planktonic cell density was adjusted to the same CFU per ml as the NRel population in each experiment as follows: NTHI were incubated statically to mid log phase growth then diluted to either 3×10^8 CFU/ml for comparison with anti-rsPilA NRel collected at 6 h, or to 2×10^8 CFU/ml for comparison with anti-IHF NRel collected at 15 min (see FIG. 1). Applicant then determined the concentrations of amoxicillin (Sigma-Aldrich, St. Louis, MO) and clavulanate (U.S. Pharmacopeia, Rockville, MD), or of trimethoprim (Sigma-Aldrich) and sulfamethoxazole (Santa Cruz Biotech, Dallas, TX) that killed approximately 25% of planktonic NTHI at each density. The same antibiotic concentrations were used for the anti-IHF or anti-rsPilA NRel, the density-matched (same CFU/ml) planktonic NTHI, and the adherent biofilm for each relevant experiment. […] Applicant then assessed killing of anti-IHF or anti-rsPilA NRel by concentrations of amoxicillin plus clavulanic acid (“augmentin”, AMC) or trimethoprim plus sulfamethoxazole (TMP-SMX) that killed 25% of the planktonic NTHI at the same density.
Anti-rsPilA or anti-IHF NRel were collected and sonicated as described above. After sonication for 2 min in a water bath sonicator to break up any NTHI aggregates, NRel or planktonic NTHI were incubated with the indicated antibiotics at 37° C. for 2 h, then serially diluted and plated on chocolate agar to quantify viable NTHI. To assay biofilm-resident NTHI, biofilms were established for 16 h at 37° C. as described above, washed twice with DPBS and incubated in sBHI supplemented with the indicated antibiotics at 37° C. After 2 h, biofilm-resident NTHI were collected by forceful pipetting, sonicated for 2 min and enumerated as described above. All experiments were performed at least three times on separate days with two or three technical replicates for each treatment and control group.

[5] = tested on: NRel versus Non-Associated NTHI
From the text: Applicant tested for this phenotype for either Amox/Clav or Trimethoprim/Sulfamethoxazole to determine when this sensitivity first appears and how long this NRel phenotype lasts (i.e. what is the window of opportunity in which to treat a patient with a biofilm disease?). Here, NRel are compared not to planktonic bacteria (due to their artificiality) but rather to “Non-Associated” bacteria which are those found in the supernatant above the biofilm but not associated with biofilm residence as this population represents those bacteria that naturally come off the biofilm or were never a part of the biofilm which is a normal aspect of the preferred bacterial lifestyle in nature. […] Box Legend: NRelAC—relative killing by Amox/Clav; NRel TS—relative killing by Trimethoprim/Sulfamethoxazole; open symbols are the same but for the non-associated populations of bacteria as now described in this legend. Data was generated with a murine anti-tip chimer antibody.
Box Legend: NRelAC—relative killing by Amox/Clav; NRel TS—relative killing by Trimethoprim/Sulfamethoxazole; open symbols are the same but for the non-associated populations of bacteria as now described in this legend. Data was generated with a murine anti-tip chimer antibody.

A. baumanii [6] = experiment: Time and dose-dependent release into NRel state from established biofilms by HuTipMab; format: cell-based; details: A. baumanii biofilm; versus HuIgG negative control
Description: (§2) FIGS. 8A to 8F show the time and dose-dependence of release of six diverse species of human pathogens into the NRel state by anti-DNABII which occurs when established biofilms are incubated with a humanized monoclonal antibody raised against a chimeric peptide identified as IhfA5-mIhfB4 tip chimer (The humanized antibody utilized in this example (identified in the Figure and herein as “HuTipMab”) comprises heavy chain 1 (HCl) and light chain 2 (LC2) as disclosed herein) but not when similarly incubated with the negative control (“HulgG” a commercially available naïve human serum of the isotype IgG).

B. cenocepacia = experiment: as above; format: cell-based; details: B. cenocepacia biofilm; versus HuIgG negative control
Description: as §2

P. aeruginosa = experiment: as above; format: cell-based; details: P. aeruginosa biofilm; versus HuIgG negative control
Description: as §2

S. aureus = experiment: as above; format: cell-based; details: S. aureus biofilm; versus HuIgG negative control
Description: as §2

S. pneumoniae = experiment: as above; format: cell-based; details: S. pneumoniae biofilm; versus HuIgG negative control
Description: as §2

[7] = tested on: nontypeable H. influenzae (NTHI); experiment: as above; format: cell-based; details: NTHI biofilm; versus HuIgG negative control
Description: as §2

[8] = after exposure to anti-DNABII antibody

NC[C@H]1O[C@H](O[C@H]2[C@H](O)[C@@H](O[C@H]3O[C@H](CO)[C@@H](O)[C@H](N)[C@H]3O)[C@H](N)C[C@@H]2N)[C@H](N)C[C@@H]1O [tobramycin]
relative killing of anti-DNABII NRel versus planktonic (A. baumanii [1]): not killed significantly greater | MIC [2]: 4086 μg tobramycin/ml | killing of anti-DNABII NRel of JG1 compared to planktonic ([3]; 1/4 MIC tobramycin, n=3, p≤0.01): significantly more sensitive to killing | planktonic JG1 killed ([3]; 1/4 of the MIC of tobramycin): ~25%

amoxicillin and clavulanic acid [A/C]
sensitivity of biofilm-resident NTHI to killing ([4]; 16 h biofilm, 2 h antibiotic): minimal sensitivity | sensitivity to killing of anti-IHF NRel compared to biofilm-resident NTHI ([4]; NRel after 15 min anti-IHF, 2 h antibiotic): significantly more sensitive | sensitivity to killing of anti-IHF NRel compared to planktonic NTHI ([4]; NRel after 15 min anti-IHF, 2 h antibiotic at concentration killing ~20-25% of planktonic NTHI): significantly more sensitive | sensitivity to killing of anti-rsPilA NRel compared to biofilm-resident NTHI ([4]; NRel after 6 h anti-rsPilA, 2 h antibiotic): significantly more sensitive | sensitivity to killing of anti-rsPilA NRel compared to planktonic NTHI ([4]; NRel after 6 h anti-rsPilA, 2 h antibiotic at concentration killing ~20-25% of planktonic NTHI): only equally as sensitive; also recorded: only as equally as sensitive | sensitivity to killing of anti-rsPilA NRel compared to planktonic NTHI ([4]; NRel after 6 h anti-rsPilA, 2 h antibiotic at concentration killing ~20-25% of planktonic NTHI, listed as AMC): only equally as sensitive | sensitivity to killing of time-matched anti-rsPilA NRel compared to planktonic NTHI ([4]; NRel collected after 2 h, TMP-SMX 0.09 and 0.45 μg per ml, AMC 0.3 and 0.15 μg per ml, listed as AMC): only equally as sensitive; also recorded: equally susceptible | sensitivity to killing of time-matched anti-IHF NRel compared to planktonic NTHI ([4]; NRel collected after 2 h, TMP-SMX 0.94 and 4.7 μg/ml, AMC 2.5 and 1.25 μg/ml, listed as AMC): significantly more sensitive; also recorded: significantly more susceptible | sensitivity of anti-DNABII NRel to killing compared to Non-Associated bacteria ([5]; NRel induced with murine anti-tip chimer antibody): significantly greater sensitivity | time at which sensitivity of anti-DNABII NRel reaches a maximum [5, 8]: ≤ 2 h | time at which significantly greater sensitivity of anti-DNABII NRel occurs [5, 8]: ≤ 5 min | time until which greater sensitivity of anti-DNABII NRel lasts [5, 8]: ~3 h | time by which greater sensitivity of anti-DNABII NRel wanes ([5]; post exposure to anti-DNABII antibody): ≤ 6 h

B1: HuTipMab (antibody)
heavy: EVQLVESGGGLVQPGGSLRLSCAASGFTFRTYAMSWVRQAPGKGLEWVATIGSDRRHTYYPDSVKGRFTISRDNSKNTLYLQMNSLRAEDTAVYYCVGPYDGYYGEFDYWGQGTLVTVSSASTKGPSVFPLAPSSKSTSGGTAALGCLVKDYFPEPVTVSWNSGALTSGVHTFPAVLQSSGLYSLSSVVTVPSSSLGTQTYICNVNHKPSNTKVDKKVEPKSCDKTHTCPPCPAPELLGGPSVFLFPPKPKDTLMISRTPEVTCVVVDVSHEDPEVKFNWYVDGVEVHNAKTKPREEQYNSTYRVVSVLTVLHQDWLNGKEYCKVSNKALPAPIEKTISKAKGQPREPQVYTLPPSREEMTKNQVSLTCLVKGFYPSDIAVEWESNGQPENNYKTTPPVLDSDGSFFLYSKLTVDKSRWQQGNVFSCSVMHEALHNHYTQKSLSLSPG
light: DVVMTQSPLSLPVTLGQPASISCRSSQSLLDSDGKTFLNWLQQRPGQSPRRLIYLVSKRDSGVPDRFSGSGSGTDFTLKISRVEAEDVGVYYCWQGTHFPYTFGQGTKLEIKRTVAAPSVFIFPPSDEQLKSGTASVVCLLNNFYPREAKVQWKVDNALQSGNSQESVTEQDSKDSTYSLSSTLTLSKADYEKHKVYACEVTHQGLSSPVTKSFNRGEC
release into the NRel state over time (A. baumanii [6]): jump in the number of NRel at 30 mins regardless of dose | release into the NRel state over time (B. cenocepacia): jump in the number of NRel at 30 mins regardless of dose | release into the NRel state over time (P. aeruginosa): gradual, more linear increase over time | release into the NRel state over time (S. aureus): jump in the number of NRel at 30 mins regardless of dose | release into the NRel state over time (S. pneumoniae): gradual, more linear increase over time | release into the NRel state over time [7]: jump in the number of NRel at 30 mins regardless of dose
